Assay results as given in paper PMC9466626, “Discovery of new 1H-pyrazolo[3,4-d]pyrimidine derivatives as anticancer agents targeting EGFR^WT and EGFR^T790M” (Journal of Enzyme Inhibition and Medicinal Chemistry, 2022).
Where two headings read alike, the source gives them in different places.

Columns and labels:
HCT-116 = assay: In vitro anti-proliferative MTT assay, HCT-116; type: cell-based, human; conditions: for IC50: Homo sapiens, HCT-116, mean of three experiments, read-out: In vitro cytotoxicity IC50, HCT-116; for IC50 / anti-proliferative activity against HCT-116 in words: MTT; for HillSlope (best-fit value), HCT-116 / LogIC50 (best-fit value), HCT-116: supplement IC50 graph
Description: The cytotoxic activities of the synthesised compounds were assessed against two human cancer cell lines (lung, A549) and (colon HCT-116) using an MTT assay. These two cell lines were selected in this test due to the overexpression of EGFR in human lung and colon cancer cell lines[48]^,[49]. The tested cells were reported to have a high expression level of EGFR.
In vitro cytotoxicity was carried out for the synthesised compounds against A549, HCT-116, and WI-38 cell lines using the MTT assay protocol[52–55] as described in Supplementary data. […]
(§1) 1.1. In vitro antiproliferative activities
The in vitro antiproliferative activities of all the synthesized compounds against two human tumor cell lines namely, (lung, A549) and (colon HCT-116) and one normal cell line (WI-38) were evaluated quantitatively as described in the literature, using MTT assay protocol . two commercially available drugs (erlotinib) were used in this test as positive controls. The anti-proliferative activity was assessed quantitatively as follows.
(§2) Human cancer cell lines were dropped in 96 -well plates at a density of 3-8 × 10^3 cells/well.
(§3) Next, the wells were incubated for 12 h in a 5% CO 2 incubator at 37 °C. Then, for each well, the growth medium was exchanged with 0.1 ml of fresh medium containing graded concentrations of the test compounds to be or equal DMSO and incubated for two days. Then 10 μl MTT solution ([…]) was added to each well, and the cells were incubated for additional 4 h. The crystals of MTT-formazan were dissolved in 100 μl of DMSO; the absorbance of each well was measured at 490 nm using an automatic ELISA reader system (TECAN, CHE). The IC 50 values were calculated using the nonlinear regression fitting models (Graph Pad, Prism Version 5). The data represented the mean of three independent experiments in triplicate and were expressed as means ± SD. The IC50 value was defined as the concentration at which 50% of the cells could survive.
(§4) The results were expressed as growth inhibitory concentration (IC50) values and […]

A549 = assay: In vitro anti-proliferative MTT assay, A549; type: cell-based, human; conditions: for IC50: Homo sapiens; for HillSlope (best-fit value), A549 / LogIC50 (best-fit value), A549: supplement IC50 graph
Description: These two cell lines were selected in this test due to the overexpression of EGFR in human lung and colon cancer cell lines[48]^,[49]. The tested cells were reported to have a high expression level of EGFR. […]
as §1
The in vitro antiproliferative activities of all the synthesized compounds against two human […]
evaluated quantitatively as described in the literature, using MTT assay protocol . two […]
proliferative activity was assessed quantitatively as follows.
as §2
as §3, with “IC50 value was defined as the concentration at which 50% of the cells could survive.” left out
as §4

EGFR^WT = molecular target: T1, EGFR^WT (Homo sapiens, UniProt P00533); assay: EGFR^WT kinase inhibitory assay (HTRF); type: biochemical
T1 construct: purchased Sigma
Description: In vitro EGFR inhibitory activity was assessed using a Homogeneous time-resolved fluorescence (HTRF) assay[56] as described in Supplementary data.
4.1.1. EGFRWT and EGFRT790M kinase inhibitory assay […]
against four cancer cell lines were further examined for their inhibitory activities against both […]
Homogeneous time resolved fluorescence (HTRF) assay was applied in this test. EGFRWT, EGFRT790M (Sigma). firstly, the EGFRWT and/or EGFRT790M and their substrates were incubated with the tested compounds in enzymatic buffer for 5 min. […]
the enzymatic reaction. The assay was conducted for 30 min at room temperature. The reaction was stopped by addition of detection reagents which contain EDTA. The detection step continued […]
experiments were performed for each concentration. […]

in vitro = conditions: human, WI-38 normal cells
Description: (§5) Next, the wells were incubated for 12 h in a 5% CO 2 incubator at 37 °C. Then, for each well, the growth medium was exchanged with 0.1 ml of fresh medium containing graded concentrations of the test compounds to be or equal DMSO and incubated for two days. Then 10 μl MTT solution (5 μg/ml) was added to each well, and the cells were incubated for additional 4 h. The crystals of MTT-formazan were dissolved in 100 μl of DMSO; the absorbance of each well was measured at 490 nm using an automatic ELISA reader system (TECAN, CHE). The IC 50 values were calculated using the nonlinear regression fitting models (Graph Pad, Prism Version 5). The data represented the mean of three independent experiments in triplicate and were expressed as means ± SD.

WI-38 = assay: In vitro cytotoxicity against normal cells (MTT), WI-38; conditions: supplement graph
Description: as §5

[1] = A549, MTT, mean of three experiments, read-out: In vitro cytotoxicity IC50, A549
[2] = HTRF, mean of three experiments, read-out: EGFR^WT IC50
[3] = supplement graph, axis Log (nM)
[4] = supplement graph, axis Log (nM), read-out: IC50 (best-fit value of graph), EGFR inhibition

T1 sequence (P00533 25-1210): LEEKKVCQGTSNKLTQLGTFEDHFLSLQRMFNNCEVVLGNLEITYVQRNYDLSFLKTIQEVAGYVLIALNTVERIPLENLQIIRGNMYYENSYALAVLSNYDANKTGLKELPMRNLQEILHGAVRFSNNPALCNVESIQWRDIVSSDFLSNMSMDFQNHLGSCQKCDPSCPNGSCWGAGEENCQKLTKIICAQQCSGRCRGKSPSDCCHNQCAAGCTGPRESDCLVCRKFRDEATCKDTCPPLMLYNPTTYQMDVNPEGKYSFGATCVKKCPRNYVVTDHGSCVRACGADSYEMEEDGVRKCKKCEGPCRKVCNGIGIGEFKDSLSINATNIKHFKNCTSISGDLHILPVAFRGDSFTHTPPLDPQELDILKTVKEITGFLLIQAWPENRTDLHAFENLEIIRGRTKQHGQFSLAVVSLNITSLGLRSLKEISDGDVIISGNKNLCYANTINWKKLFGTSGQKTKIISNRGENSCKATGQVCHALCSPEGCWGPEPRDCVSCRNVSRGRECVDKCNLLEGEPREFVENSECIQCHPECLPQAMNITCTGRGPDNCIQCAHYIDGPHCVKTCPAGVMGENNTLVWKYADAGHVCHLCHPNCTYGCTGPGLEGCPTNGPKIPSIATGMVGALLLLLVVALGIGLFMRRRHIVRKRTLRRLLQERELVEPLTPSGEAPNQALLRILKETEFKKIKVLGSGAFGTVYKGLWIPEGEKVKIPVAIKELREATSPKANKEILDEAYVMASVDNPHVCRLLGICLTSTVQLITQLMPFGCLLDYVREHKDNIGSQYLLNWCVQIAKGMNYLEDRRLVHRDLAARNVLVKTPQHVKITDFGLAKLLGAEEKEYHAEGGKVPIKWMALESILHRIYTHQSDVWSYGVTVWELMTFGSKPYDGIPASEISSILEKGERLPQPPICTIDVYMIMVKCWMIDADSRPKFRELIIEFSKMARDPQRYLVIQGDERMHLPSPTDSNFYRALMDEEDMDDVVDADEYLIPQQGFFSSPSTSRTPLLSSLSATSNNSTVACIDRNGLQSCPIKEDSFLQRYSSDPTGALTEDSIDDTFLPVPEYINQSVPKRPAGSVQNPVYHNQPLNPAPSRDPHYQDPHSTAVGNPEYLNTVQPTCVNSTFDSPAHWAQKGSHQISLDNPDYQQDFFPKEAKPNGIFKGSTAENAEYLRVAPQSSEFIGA

| Compound | IC50 (HCT-116) [µM] | anti-proliferative activity against HCT-116 in words (HCT-116) | HillSlope (best-fit value), HCT-116 (HCT-116) | LogIC50 (best-fit value), HCT-116 (HCT-116) | IC50 (A549; [1]) [µM] | HillSlope (best-fit value), A549 (A549) | LogIC50 (best-fit value), A549 (A549) | IC50 (EGFR^WT; [2]) [nM] | HillSlope (best-fit value), EGFR inhibition (EGFR^WT; supplement graph) | LogIC50 (best-fit value), EGFR inhibition (EGFR^WT; [3]) | IC50 (EGFR^WT; [4]) [nM] | IC50 at 2 days (in vitro) [µM] | IC50 (A549; A549, read-out: IC50 (best-fit value of graph), A549) [µM] | HillSlope (best-fit value), WI-38 (WI-38) | LogIC50 (best-fit value), WI-38 (WI-38) |
| --- | --- | --- | --- | --- | --- | --- | --- | --- | --- | --- | --- | --- | --- | --- | --- |
| CCNc1nc(Nc2ccccc2)nc2c1cnn2-c1ccccc1 [Compound 7a, N4-Ethyl-N6,1-diphenyl-1H-pyrazolo[3,4-d]pyrimidine-4,6-diamine] | 29.6 | moderate | -0.4339 | 1.472 | 64.4 | -0.4567 | 1.809 | – | – | – | – | – | – | – | – |
| CCCNc1nc(Nc2ccccc2)nc2c1cnn2-c1ccccc1 [Compound 7b, N4-Propyl-N6,1-diphenyl-1H-pyrazolo[3,4-d]pyrimidine-4,6-diamine] | 31.5 | moderate | -0.4549 | 1.498 | 67.4 | -0.4700 | 1.829 | – | – | – | – | – | – | – | – |
| c1ccc(Nc2nc(Nc3ccccc3)c3cnn(-c4ccccc4)c3n2)cc1 [Compound 8, N4,N6,1-Triphenyl-1H-pyrazolo[3,4-d]pyrimidine-4,6-diamine] | 24.2 | – | -0.4231 | 1.383 | 16.8 | -0.3605 | 1.224 | 26 | -0.3385 | 1.415 | 26 | – | – | – | – |
| c1ccc(Nc2nc(NC3CCCCC3)c3cnn(-c4ccccc4)c3n2)cc1 [Compound 9, N4-Cyclohexyl-N6,1-diphenyl-1H-pyrazolo[3,4-d]pyrimidine-4,6-diamine] | 39.4 | – | -0.3946 | 1.595 | 29.1 | -0.3708 | 1.463 | – | – | – | – | – | – | – | – |
| NNc1nc(Nc2ccccc2)nc2c1cnn2-c1ccccc1 [Compound 10, 4-Hydrazinyl-N,1-diphenyl-1H-pyrazolo[3,4-d]pyrimidin-6-amine] | 18.8 | – | -0.3276 | 1.274 | 15.7 | -0.3765 | 1.195 | 23 | -0.3619 | 1.366 | 23.2 | – | – | – | – |
| COc1ccc(C=NNc2nc(Nc3ccccc3)nc3c2cnn3-c2ccccc2)cc1 [Compound 11a, 4–(2-(4-Methoxybenzylidene)hydrazinyl)-N,1-diphenyl-1H-pyrazolo[3,4-d] pyrimidin-6-amine] | 46.2 | – | -0.4760 | 1.664 | 47.7 | -0.4514 | 1.678 | – | – | – | – | – | – | – | – |
| Clc1ccc(C=NNc2nc(Nc3ccccc3)nc3c2cnn3-c2ccccc2)cc1 [Compound 11b, 4–(2-(4-Chlorobenzylidene)hydrazinyl)-N,1-diphenyl-1H-pyrazolo[3,4-d]pyrimidin-6-amine] | 75.1 | – | -0.5652 | 1.876 | 75.7 | -0.3813 | 1.879 | – | – | – | – | – | – | – | – |
| CC(=NNc1nc(Nc2ccccc2)nc2c1cnn2-c1ccccc1)c1ccccc1 [Compound 12a, N,1-Diphenyl-4–(2-(1-phenylethylidene)hydrazinyl)-1H-pyrazolo[3,4-d]pyrimidin-6-amine] | 23.3 | – | -0.4063 | 1.368 | 13.7 | -0.3395 | 1.137 | 21 | -0.3296 | 1.321 | 21 | – | – | – | – |
| CC(=NNc1nc(Nc2ccccc2)nc2c1cnn2-c1ccccc1)c1ccc(C)cc1 [Compound 12c, N,1-Diphenyl-4–(2-(1-(p-tolyl)ethylidene)hydrazinyl)-1H-pyrazolo [3,4-d] pyrimidin-6-amine] | 28.7 | moderate | -0.4467 | 1.458 | 28.8 | -0.4080 | 1.459 | – | – | – | – | – | – | – | – |
| CCNC(=S)NNc1nc(Nc2ccccc2)nc2c1cnn2-c1ccccc1 [Compound 13a, N-Ethyl-2–(1-phenyl-6-(phenylamino)-1H-pyrazolo[3,4-d]pyrimidin-4-yl) hydrazine-1-carbothioamide] | 27 | moderate | -0.4156 | 1.432 | 43.1 | -0.4011 | 1.635 | – | – | – | – | – | – | – | – |
| CCCNC(=S)NNc1nc(Nc2ccccc2)nc2c1cnn2-c1ccccc1 [Compound 13b, 2–(1-Phenyl-6-(phenylamino)-1H-pyrazolo[3,4-d]pyrimidin-4-yl)-N-propyl hydrazine-1-carbothioamide] | 36.4 | – | -0.3703 | 1.562 | 15.4 | -0.3921 | 1.186 | – | – | – | – | – | – | – | – |
| C#Cc1cccc(Nc2ncnc3cc(OCCOC)c(OCCOC)cc23)c1 [Erlotinib, reference compound] | 19.2 | – | -0.3370 | 1.284 | 6.77 | -0.3354 | 0.8309 | – | – | – | – | 33.8 | 6.78 | -0.4750 | 1.528 |
